Molecular target: Beta-1 adrenergic receptor (Homo sapiens, UniProt P08588)
Assay: Agonist activity at human adrenergic beta1 receptor expressed in CHO cells assessed as cAMP accumulation

Chain of Beta-1 adrenergic receptor (P08588 whole entry): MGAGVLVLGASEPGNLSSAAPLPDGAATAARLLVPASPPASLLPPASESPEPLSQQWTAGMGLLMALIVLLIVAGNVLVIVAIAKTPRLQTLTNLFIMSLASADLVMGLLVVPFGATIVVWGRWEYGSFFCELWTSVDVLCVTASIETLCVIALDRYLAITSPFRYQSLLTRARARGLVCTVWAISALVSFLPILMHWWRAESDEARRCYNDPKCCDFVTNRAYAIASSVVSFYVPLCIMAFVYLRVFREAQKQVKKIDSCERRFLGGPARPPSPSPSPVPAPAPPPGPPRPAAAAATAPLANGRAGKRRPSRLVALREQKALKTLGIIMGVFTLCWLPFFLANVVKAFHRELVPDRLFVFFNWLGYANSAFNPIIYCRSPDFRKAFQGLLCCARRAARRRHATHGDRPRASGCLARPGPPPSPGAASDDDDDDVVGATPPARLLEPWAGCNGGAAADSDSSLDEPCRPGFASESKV

O=c1[nH]cc(O)n1-c1ccc(CCCCOCCCCCCNC[C@H](O)c2ccc(O)c(CO)c2)cc1
EC50: 79 nM
